Experimental data: ChEMBL document CHEMBL1141223, “Potent Dmt-Tic pharmacophoric delta- and mu-opioid receptor antagonists” (J Med Chem, 2005)

Legend:
Mu-type opioid receptor [1] = biological target: T1, Mu-type opioid receptor (Cavia porcellus, UniProt P97266); experiment: Displacement of endomorphin-2 from mu opioid receptor in guinea pig ileum; assay type: tissue-based, Hartley; conditions: read-out: pA2 (converted)
[2] = biological target: Mu-type opioid receptor (Cavia porcellus) (UniProt P97266); experiment: Maximal inhibition of muscle contraction in guinea pig ileum at 10000 nM; assay type: functional, tissue-based; design: scale not given: the % may be the effect or the level left
[3] = biological target: Delta-type opioid receptor (Rattus norvegicus, UniProt P33533); experiment: Displacement of [3H]deltorphin-II from delta opioid receptor in rat brain synaptosomal membranes; assay type: cell membranes, Sprague-Dawley, Membrane
Mu-type opioid receptor [4] = biological target: Mu-type opioid receptor (Rattus norvegicus, UniProt P33535); experiment: Displacement of [3H]DAMGO from mu opioid receptor expressed in rat brain synaptosomal membranes; assay type: cell membranes, Sprague-Dawley, Membrane
[5] = biological target: Opioid receptors; mu & delta (Rattus norvegicus) (UniProt P33533+P33535); experiment: Selectivity ratio of rat mu opioid receptor over rat delta opioid receptor; assay type: protein assay
[6] = biological target: T2, Delta-type opioid receptor (Mus musculus, UniProt P32300); experiment: Agonistic activity at delta opioid receptor in mouse vas deferens; assay type: functional, tissue-based
[7] = biological target: T2, Delta-type opioid receptor; experiment: Displacement of deltorphin-II from delta opioid receptor in mouse vas deferens; conditions: read-out: pA2 (converted)
[8] = biological target: Delta-type opioid receptor (Mus musculus) (UniProt P32300); experiment: Maximal inhibition of muscle contraction in mouse vas deferens at 10000 nM; assay type: functional, tissue-based; design: scale not given: the % may be the effect or the level left; conditions: Muscle tissue
Mu-type opioid receptor [9] = biological target: T1, Mu-type opioid receptor; experiment: Agonistic activity at mu opioid receptor in myenteric plexus longitudinal muscle of guinea pig ileum; assay type: functional, tissue-based, Hartley

Opioid receptors; mu & delta (Rattus norvegicus), sequence (P33533 whole entry, looked up): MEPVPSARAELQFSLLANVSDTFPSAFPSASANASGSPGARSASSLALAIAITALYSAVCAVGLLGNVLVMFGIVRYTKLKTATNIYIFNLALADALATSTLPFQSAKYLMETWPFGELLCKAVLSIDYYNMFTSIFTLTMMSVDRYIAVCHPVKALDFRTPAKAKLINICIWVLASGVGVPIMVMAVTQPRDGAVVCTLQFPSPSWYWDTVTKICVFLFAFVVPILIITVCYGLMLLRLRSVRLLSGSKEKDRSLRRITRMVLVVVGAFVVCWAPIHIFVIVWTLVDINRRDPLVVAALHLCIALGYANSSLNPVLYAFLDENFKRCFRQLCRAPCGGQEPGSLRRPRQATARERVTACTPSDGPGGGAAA
Opioid receptors; mu & delta (Rattus norvegicus), sequence (P33535 whole entry, looked up): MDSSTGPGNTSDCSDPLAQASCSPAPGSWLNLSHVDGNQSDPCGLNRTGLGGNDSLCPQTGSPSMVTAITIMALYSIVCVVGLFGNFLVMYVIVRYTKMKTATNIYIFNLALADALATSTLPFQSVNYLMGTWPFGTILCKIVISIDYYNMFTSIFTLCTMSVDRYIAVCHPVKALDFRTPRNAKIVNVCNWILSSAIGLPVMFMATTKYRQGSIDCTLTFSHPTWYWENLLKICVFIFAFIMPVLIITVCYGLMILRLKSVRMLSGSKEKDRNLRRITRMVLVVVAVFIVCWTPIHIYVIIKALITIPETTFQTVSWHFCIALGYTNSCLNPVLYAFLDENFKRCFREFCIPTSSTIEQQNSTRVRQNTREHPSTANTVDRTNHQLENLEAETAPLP
Delta-type opioid receptor (Rattus norvegicus, UniProt P33533), sequence (P33533 whole entry): as the sequence (P33533 whole entry, looked up) above
Mu-type opioid receptor (Cavia porcellus), sequence (P97266 whole entry): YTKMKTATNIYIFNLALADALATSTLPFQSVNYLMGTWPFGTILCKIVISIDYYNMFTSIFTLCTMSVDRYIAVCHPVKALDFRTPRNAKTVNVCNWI
T1 sequence (P97266 whole entry): as above
T2 sequence (P32300 whole entry): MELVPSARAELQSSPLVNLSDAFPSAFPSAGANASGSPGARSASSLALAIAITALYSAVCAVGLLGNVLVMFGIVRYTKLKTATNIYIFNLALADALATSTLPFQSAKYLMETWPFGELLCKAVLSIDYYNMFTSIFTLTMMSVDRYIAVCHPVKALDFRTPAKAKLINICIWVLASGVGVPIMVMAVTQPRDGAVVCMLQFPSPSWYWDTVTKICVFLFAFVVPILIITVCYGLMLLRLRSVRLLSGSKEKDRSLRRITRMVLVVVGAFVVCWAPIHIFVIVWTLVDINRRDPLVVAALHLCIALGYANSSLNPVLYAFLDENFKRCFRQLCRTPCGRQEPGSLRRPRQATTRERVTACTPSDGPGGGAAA
Delta-type opioid receptor (Mus musculus), sequence (P32300 whole entry): as above
Mu-type opioid receptor (Rattus norvegicus, UniProt P33535), sequence (P33535 whole entry): as the sequence (P33535 whole entry, looked up) above

Structure (SMILES)	Kb (Mu-type opioid receptor [1]) [nM]	Activity [2] [%]	Ki [3] [nM]	Ki (Mu-type opioid receptor [4]) [nM]	Ratio Ki [5]	IC50 [6] [nM]	Kb [7] [nM]	Activity [8] [%]	IC50 (Mu-type opioid receptor [9]) [nM]
Cc1cc(O)cc(C)c1C[C@H](N)C(=O)N1Cc2ccccc2CC1C(=O)NCCc1nc(O)c(CCNC(=O)C2Cc3ccccc3CN2C(=O)[C@@H](N)Cc2c(C)cc(O)cc2C)nc1C (stereo partly specified)	166	< 27	0.095	2.83	30	> 10000	0.0186	< 1	> 10000
Cc1cc(O)cc(C)c1C[C@H](N)C(=O)N1Cc2ccccc2CC1C(=O)NCCCCc1nc(O)c(CCNC(=O)C2Cc3ccccc3CN2C(=O)[C@@H](N)Cc2c(C)cc(O)cc2C)nc1C (stereo partly specified)		< 44	0.107	1.37	13	> 10000	0.0102	< 1	> 10000
Cc1cc(O)cc(C)c1C[C@H](N)C(=O)N1Cc2ccccc2CC1C(=O)NCCCCc1nc(O)c(CCCNC(=O)C2Cc3ccccc3CN2C(=O)[C@@H](N)Cc2c(C)cc(O)cc2C)nc1C (stereo partly specified)		< 1			10			< 10	
Cc1cc(O)cc(C)c1C[C@H](N)C(=O)N1Cc2ccccc2CC1C(=O)NCCCCc1[nH]c(=O)c(CCCNC(=O)C2Cc3ccccc3CN2C(=O)[C@@H](N)Cc2c(C)cc(O)cc2C)nc1C (stereo partly specified)			0.16	1.56		> 10000	0.0251		> 10000
Cc1cc(O)cc(C)c1C[C@@H](C(=O)N1Cc2ccccc2CC1C(=O)NCCCCCCNC(=O)C1Cc2ccccc2CN1C(=O)[C@H](Cc1c(C)cc(O)cc1C)N(C)C)N(C)C (stereo partly specified)	4.57	< 1	0.06	2.21	37	> 10000	0.00525	< 1	> 10000
Cc1cc(O)cc(C)c1C[C@H](N)C(=O)N1Cc2ccccc2CC1C(=O)NCc1nc(O)c(CNC(=O)C2Cc3ccccc3CN2C(=O)[C@@H](N)Cc2c(C)cc(O)cc2C)nc1C (stereo partly specified)		< 15	0.163	3.76	23	> 10000	0.00603	< 1	> 10000
Cc1cc(O)cc(C)c1C[C@@H](C(=O)N1Cc2ccccc2CC1C(=O)NCCCc1nc(O)c(CCCNC(=O)C2Cc3ccccc3CN2C(=O)[C@H](Cc2c(C)cc(O)cc2C)N(C)C)nc1C)N(C)C (stereo partly specified)	19.5	< 1	0.287	1.68	6	> 10000	0.038	< 1	> 10000
Cc1cc(O)cc(C)c1C[C@H](N)C(=O)N1Cc2ccccc2CC1C(=O)NCCCCNC(=O)C1Cc2ccccc2CN1C(=O)[C@@H](N)Cc1c(C)cc(O)cc1C (stereo partly specified)	102	< 16	0.124	5.72	46	> 10000	0.0309	< 1	> 10000
Cc1cc(O)cc(C)c1C[C@H](N)C(=O)N1Cc2ccccc2CC1C(=O)NCCCCCCCCCCNC(=O)C1Cc2ccccc2CN1C(=O)[C@@H](N)Cc1c(C)cc(O)cc1C (stereo partly specified)			1.53	4.86	3	> 10000	0.0107	< 28	5420
Cc1cc(O)cc(C)c1C[C@H](N)C(=O)N1Cc2ccccc2CC1C(=O)NCCCc1nc(O)c(CCCNC(=O)C2Cc3ccccc3CN2C(=O)[C@@H](N)Cc2c(C)cc(O)cc2C)nc1C (stereo partly specified)			0.155	3.08	20	> 10000	0.0275	< 1	7020
Cc1cc(O)cc(C)c1C[C@H](N)C(=O)N1Cc2ccccc2CC1C(=O)NCCCCCCNC(=O)C1Cc2ccccc2CN1C(=O)[C@@H](N)Cc1c(C)cc(O)cc1C (stereo partly specified)			0.129	1.79		> 10000	0.024	< 1	
Cc1cc(O)cc(C)c1C[C@H](N)C(=O)N1Cc2ccccc2CC1C(=O)NCCCCc1nc(C)c(CCCNC(=O)C2Cc3ccccc3CN2C(=O)[C@@H](N)Cc2c(C)cc(O)cc2C)nc1O (stereo partly specified)	112	< 9	0.092	2.28	25	> 10000	0.0339	22	> 10000
Cc1cc(O)cc(C)c1C[C@H](N)C(=O)N1Cc2ccccc2CC1C(=O)NCCCCc1nc(O)c(CCCCNC(=O)C2Cc3ccccc3CN2C(=O)[C@@H](N)Cc2c(C)cc(O)cc2C)nc1C (stereo partly specified)		< 34	0.323	1.74	5	> 10000	0.00871	< 1	> 10000
